Measured values: paper PMC6514812, “[^18F]Fluoroethyltriazolyl Monocyclam Derivatives as Imaging Probes for the Chemokine Receptor CXCR4” (Molecules, 2019)
Blank lines part the entries; values can stand above or below the molecule they belong to.

Columns and labels:
[1] = target: T1, CXCR4 (Homo sapiens, UniProt P61073); assay: Saturation binding assay in PC3-CXCR4 cells; details: for Kd: saturation binding, PC3-CXCR4 cells; for Hill Slope, Saturation Binding Experiment: value ± SD
T1 construct: expressed in transfected cells; host or cells: PC3 (human prostate cancer) cells stably transduced with CXCR4
T1 sequence (P61073 whole entry): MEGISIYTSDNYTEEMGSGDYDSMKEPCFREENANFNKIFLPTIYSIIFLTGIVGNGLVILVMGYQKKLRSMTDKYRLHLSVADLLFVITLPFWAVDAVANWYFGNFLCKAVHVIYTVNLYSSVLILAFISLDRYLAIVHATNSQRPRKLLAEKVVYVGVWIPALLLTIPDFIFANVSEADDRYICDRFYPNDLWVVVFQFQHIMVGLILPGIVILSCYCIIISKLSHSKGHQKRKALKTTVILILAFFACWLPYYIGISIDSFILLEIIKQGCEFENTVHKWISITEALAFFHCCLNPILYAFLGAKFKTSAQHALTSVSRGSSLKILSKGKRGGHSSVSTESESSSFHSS
Protocol: To determine the dissociation constants, saturation binding assays were performed in the PC3-CXCR4 cells. The cells were plated as described above, and approximately 5 nM of the radioligand was added to each well. Then the corresponding non-radioactive ligand was added to give a final concentration in the range 0.001–10,000 nM. A total of eight concentrations were tested, and each concentration was tested in triplicate. The samples were washed and counted as described above. Non-specific binding was subtracted, and Kd values were determined by performing a nonlinear one site binding curve fit with equation y = (Bmax · x)/(Kd + x). Values are expressed as Kd ± standard deviation (Supplemental Data, Figure S8).

[2] = target: T1, CXCR4; assay: Competition binding assay vs [^18F]RPS-544 in PC3-CXCR4 cells; details: approx. 5 pM [^18F]RPS-544; p = 0.85
Protocol: (§1) PC3-CXCR4 cells were plated in 12-well plates at a density of 500,000 cells per well and incubated for 48 h at 37 °C/5% CO2. Prior to the binding assay the cells were incubated in fresh media and 370–555 kBq of [^68Ga]Pentixafor or [^18F]RPS-544 was added to each well. The corresponding concentration of [^68Ga]Pentixafor in each well was 100 nM, and the concentration of [^18F]RPS-544 was approximately 5 pM. Then non-radioactive ligands were added to give a final ligand concentration in the range 0.001–10,000 nM. A total of eight concentrations were studied, and each concentration was tested in triplicate. The cells were incubated for 60 min at 37 °C/5% CO2. The media was removed under suction, the cells were washed with cold PBS 1X and detached and transferred to tubes for counting in 1 M NaOH. The cells were counted in a Wizard^2 Gamma Counter (PerkinElmer, Waltham, MA, USA). Non-specific binding was subtracted, and the IC50 values were determined by assuming a simple competitive binding interaction and fitting the data to a sigmoidal Hill plot in Origin 9.0 (OriginLab, Northampton, MA, USA). Potencies are expressed as IC50 ± standard deviation (Supplemental Data, Figure S7).

[3] = target: T1, CXCR4; assay: Competition binding assay vs [^68Ga]Pentixafor in PC3-CXCR4 cells; details: for IC50: vs 100 nM [^68Ga]Pentixafor, PC3-CXCR4 cells, 60 min 37 °C; for Hill Slope, Competitive Binding Experiment: vs [^68Ga]Pentixafor, value ± SD
Protocol: as §1

[4] = tested on: PC3-CXCR4 cells; assay: Cell-associated activity in PC3-CXCR4 cells; type: cell-based, human; details: 1 h
Protocol: Maximum cell-associated activity was calculated by subtracting the cell uptake of the radioactive ligand at the highest non-radioactive ligand concentration of 10 µM (which we considered to be non-specific uptake/binding) from the cell uptake at the lowest non-radioactive ligand concentration of 10^−5 µM.

[5] = tested on: PC3-CXCR4 xenograft tumors; assay: Biodistribution in mice bearing bilateral PC3-WT/PC3-CXCR4 xenograft tumors; type: in vivo, BALB/c mice
Protocol: (§2) All animal studies were approved by the Institutional Animal Care and Use Committee of Weill Cornell Medicine (Protocol Number: 2015-0066) and were undertaken in accordance with the guidelines set forth by the USPHS Policy on Humane Care and Use of Laboratory Animals. Animals were housed under standard conditions in approved facilities with 12 h light/dark cycles. Food and water was provided ad libitum throughout the course of the studies. Hairless 6-to-8-week old male BALB/c inbred athymic nude mice (Jackson Laboratory, Bar Harbor, ME, USA) were inoculated bilaterally with 0.2 mL of a 1:1 mixture of 10^7 PC3-CXCR4 cells in PBS and Matrigel (Corning, Tewksbury, MA, USA) subcutaneously in the left shoulder and 0.2 mL of a 1:1 mixture of 10^7 PC3-WT cells in PBS and Matrigel subcutaneously in the right shoulder. Imaging and biodistribution studies were performed three weeks post-implantation, when tumors were approximately 100–300 mm^3.
(§3) For the biodistribution studies, tumor-bearing animals (n = 5/compound/time point) were injected intravenously with 50–100 μL of a 9% v/v EtOH/saline solution containing approximately 1.1 MBq of the radioligand. […] The mice were euthanized at 1 or 2 h p.i. and tissues including blood, heart, lungs, liver, small intestine, large intestine, stomach (with contents), spleen, pancreas, kidneys, muscle, bone, PC3-WT tumors, PC3-CXCR4 tumors, and tail were collected. All organs were weighed and placed in test tubes for counting in a Wizard^2 Gamma Counter (PerkinElmer, Waltham, MA, USA). For comparison, 1% injected activity standards were prepared and counted along with the tissue samples. The tails were counted to correct for any dose extravasation. Activity in each tissue was corrected for decay and for injected activity and expressed as percent injected dose per gram of tissue (%ID/g) ± standard error.

[6] = as above; type: in vivo, BALB/c mice
Protocol: as §2, §3

[7] = 1 h p.i., blocked by co-injection of 5 mg/kg AMD-3100

Kd [1]: 515 ± 68 nM
Hill Slope, Saturation Binding Experiment [1]: 2.01 ± 0.22
IC50 vs [^18F]RPS-544 compared with IC50 vs [^68Ga]Pentixafor [2]: not significantly different
IC50 [3]: 398 ± 41 nM
Hill Slope, Competitive Binding Experiment [3]: 1.75 ± 0.33
Compound: FCCn1cc(-c2cc(CN3CCCNCCNCCCNCC3)ccc2CN2CCCNCCNCCCNCC2)nn1 [RPS-545]
Cell-Associated Activity [4]: 0.8 ± 0.1 %IA

Kd [1]: 261 ± 22 nM
Hill Slope, Saturation Binding Experiment [1]: 1.03 ± 0.08
IC50 [3]: 601 ± 118 nM
Hill Slope, Competitive Binding Experiment [3]: 0.97 ± 0.14
Bone tissue activity ([5]; 1 h p.i.): 0.52±0.04 %ID/g
Heart tissue activity ([5]; 1 h p.i.): 0.18±0.04 %ID/g
Kidneys tissue activity ([5]; 1 h p.i.): 10.73 ± 1.10 %ID/g
Large Intestine tissue activity ([5]; 1 h p.i.): 0.20±0.02 %ID/g
Liver tissue activity ([5]; 1 h p.i.): 6.59±1.00 %ID/g
Lungs tissue activity ([5]; 1 h p.i.): 0.48±0.05 %ID/g
Muscle tissue activity ([5]; 1 h p.i.): 0.14±0.01 %ID/g
PC3-CXCR4 Tumor Uptake ([5]; 1 h p.i.): 3.09 ± 0.52 %ID/g
PC3-CXCR4 Tumor-to-Tissue Ratio Blood ([5]; 1 h p.i.): 10.1 ± 0.3
PC3-CXCR4 Tumor-to-Tissue Ratio Bone ([5]; 1 h p.i.): 5.9 ± 0.8
PC3-CXCR4 Tumor-to-Tissue Ratio Kidneys ([5]; 1 h p.i.): 0.3 ± 0.2
PC3-CXCR4 Tumor-to-Tissue Ratio Liver ([5]; 1 h p.i.): 0.5 ± 0.2
PC3-CXCR4 Tumor-to-Tissue Ratio Lungs ([5]; 1 h p.i.): 6.2 ± 0.8
PC3-CXCR4 Tumor-to-Tissue Ratio Muscle ([5]; 1 h p.i.): 20.3 ± 0.3
PC3-CXCR4 Tumor-to-Tissue Ratio PC3-WT ([5]; 1 h p.i.): 1.9 ± 0.3
PC3-WT tumor activity ([5]; 1 h p.i.): 1.54±0.18 %ID/g
Pancreas tissue activity ([5]; 1 h p.i.): 0.20±0.01 %ID/g
Small Intestine tissue activity ([5]; 1 h p.i.): 0.95±0.10 %ID/g
Spleen tissue activity ([5]; 1 h p.i.): 0.53±0.02 %ID/g
Stomach tissue activity ([5]; 1 h p.i.): 0.17±0.03 %ID/g
Bone tissue activity [5, 7]: 0.22±0.12 %ID/g
Heart tissue activity [5, 7]: 0.14±0.19 %ID/g
Kidneys tissue activity [5, 7]: 4.08±1.10 %ID/g
Large Intestine tissue activity [5, 7]: 0.23±0.06 %ID/g
Liver tissue activity [5, 7]: 4.13±0.50 %ID/g
Lungs tissue activity [5, 7]: 0.35±0.15 %ID/g
Muscle tissue activity [5, 7]: 0.18±0.35 %ID/g
PC3-CXCR4 tumor activity [5, 7]: 1.16±0.12 %ID/g
PC3-WT tumor activity [5, 7]: 0.86±0.10 %ID/g
Pancreas tissue activity [5, 7]: 0.22±0.04 %ID/g
Small Intestine tissue activity [5, 7]: 0.51±0.18 %ID/g
Spleen tissue activity [5, 7]: 0.12±0.03 %ID/g
Stomach tissue activity [5, 7]: 0.10±0.03 %ID/g
PC3-CXCR4 Tumor Uptake ([5]; 1 h p.i., listed as [^18F]RPS-547): 3.1 ± 0.5 %ID/g
Bone tissue activity ([5]; 2 h p.i.): 0.31±0.02 %ID/g
Heart tissue activity ([5]; 2 h p.i.): 0.08±0.01 %ID/g
Kidneys tissue activity ([5]; 2 h p.i.): 5.60±0.56 %ID/g
Large Intestine tissue activity ([5]; 2 h p.i.): 0.19±0.12 %ID/g
Liver tissue activity ([5]; 2 h p.i.): 5.18±0.27 %ID/g
Lungs tissue activity ([5]; 2 h p.i.): 0.24±0.02 %ID/g
Muscle tissue activity ([5]; 2 h p.i.): 0.09±0.02 %ID/g
PC3-CXCR4 Tumor-to-Tissue Ratio Blood ([5]; 2 h p.i.): 24.0 ± 0.2
PC3-CXCR4 Tumor-to-Tissue Ratio Bone ([5]; 2 h p.i.): 6.3 ± 0.4
PC3-CXCR4 Tumor-to-Tissue Ratio Kidneys ([5]; 2 h p.i.): 0.3 ± 0.1
PC3-CXCR4 Tumor-to-Tissue Ratio Liver ([5]; 2 h p.i.): 0.4 ± 0.2
PC3-CXCR4 Tumor-to-Tissue Ratio Lungs ([5]; 2 h p.i.): 8.2 ± 0.4
PC3-CXCR4 Tumor-to-Tissue Ratio Muscle ([5]; 2 h p.i.): 11.0 ± 0.3
PC3-CXCR4 Tumor-to-Tissue Ratio PC3-WT ([5]; 2 h p.i.): 2.2 ± 0.2
PC3-CXCR4 tumor activity ([5]; 2 h p.i.): 2.02±0.10 %ID/g
PC3-WT tumor activity ([5]; 2 h p.i.): 0.86±0.13 %ID/g
Pancreas tissue activity ([5]; 2 h p.i.): 0.11±0.00 %ID/g
Small Intestine tissue activity ([5]; 2 h p.i.): 0.80±0.01 %ID/g
Spleen tissue activity ([5]; 2 h p.i.): 0.36±0.04 %ID/g
Stomach tissue activity ([5]; 2 h p.i.): 0.11±0.02 %ID/g
Blood tissue activity ([6]; 1 h p.i.): 0.28±0.06 %ID/g
Blood tissue activity [6, 7]: 0.41±0.40 %ID/g
Blood tissue activity ([6]; 2 h p.i.): 0.08±0.01 %ID/g
Compound: FCCn1cc(CNCc2ccc(CN3CCCNCCNCCCNCC3)cc2)nn1 [RPS-547]
Cell-Associated Activity [4]: 6.7 ± 2.8 %IA
